# Legend:
# C. autoethanogenum [1] = assay: Toxicity to C. autoethanogenum by batch fermentation using syngas substrate, optical density; assay type: cell-based, Clostridium autoethanogenum; conditions: for O.D. Response of Various Inhibitors on C. autoethanogenum: Table 21, one value per compound; for O.D. Response to Various Inhibitors: duplicates A and B, amount not given
# Experimental: In this example various crotonate-like compounds on are evaluated for toxicity to C. autoethanogenum by batch fermentation using syngas substrate. The batch fermentations are conducted by anoxically filling 100 mL serum bottles with 10 mL of media having the composition given in Tables 12 and 13. Duplicate runs are conducted for each concentration. The compounds are: • C-1 Ethyl 4,4,4-trifluoro-3-(trifluoromethyl)crotonate • C-4 4,4,4-Trifluorocrotonamide • C-9 Ethyl 4,4,4-Trifluoro-3-(amino)crotonate • C-18 3 trifluoromethyl-4-methoxybenzoate.
# Each bottle is inoculated with 1.0 mL of seed culture inoculum from an active fermenter using syngas substrate and containing Clostridium autoethanogenum, which inoculum has an OD of about 4.92 (which upon a 10 times dilution provides a starting OD for the fermentation of about 0.49). The bottles are gased with syngas to about 100 kilopascals and maintained at a temperature of 37° C. The bottles are regassed with syngas every 8 to 12 hours. The syngas has the approximate composition set forth in Examples 6 to 10. Twenty four hours after inoculation of the bottles with the bacteria, the compounds are added to different bottles as a solution in 50 μL of N-methylpyrrolidone in the amounts indicated in Tables 20 and 21. The fermentation process is allowed to progress at 37° C. At selected intervals of time, bacterial growth is measured by reading the OD of the fermentation liquid using a Thermo Spectronic Genesys 20 spectrophotometer. Optical density is measured by anoxically removing an aliquot of fermentation liquid and adding it to a disposable cuvette. OD's ranging between 0.01 and 0.4 are measured using fermentation liquid directly, while OD's greater than 0.4 are measure after performing a 1/10 dilution with water.
# C. autoethanogenum [2] = assay: Balch tube batch growth of homoacetogen C. autoethanogenum on fructose, optical density; assay type: cell-based; conditions: added 21 h after inoculation
# Experimental: These compounds were first tested to determine their effect on a known homoacetogen. Each compound was tested in a series of batch experiments to determine the growth response of a homoacetogen to the presence of the compound at varying concentrations. The batch experiments were all conducted by anoxically filling a Balch tube with 5 ml of a fermentation medium having the composition given in Tables 2 and 3. To expedite results, these batch experiments used fructose as the growth nutrient source for bacteria. Thus, the media included a 5 g/L of fructose.
# Each tube was inoculated with 0.5 ml of the same strain of C. autoethanogenum bacteria seed culture inoculum. The tubes were maintained at a temperature of 37° C. Twenty one hours after the inoculation of the tube with the bacteria, the different crotonate derivatives from Table 1 were added to different tubes in the amounts indicated in Table 4 This was at a time of early to mid-log phase growth for the bacteria. Each fermentation of the bacteria in the media at the different concentration of crotonate derivatives were allowed to progress and were monitored to determine the bacteria growth at selected intervals of time varying from approximately 20 hours to 190 hours. Growth at the intervals was measured by reading the optical density (OD) of the fermentation liquid. Optical density was measured using a Spectronic Spec 20 (Thermo Spectronic) at a wavelength of 600 nm. The OD of the Balch tube culture was measured directly in the tube using absorbance mode on the Spec 20 machine. The machine was set to zero absorbance by first measuring and adjusting the setting to zero absorbance using media only as a blank. This process was repeated at each indicated time point throughout the experiment. The ability of a tube fermentation at a particular concentration of crotonate derivative to reach a predetermined optical density was recorded in Table 4. Table 4 indicates the presence of bacterial growth to an OD of approximately 2 or above with a “+”, and to an optical density in a range of 0.5 to 1.5 as a “+/−”, and indicates the failure of bacterial growth to reach an optical density of approximately 0.5 as a “−”.
# [3] = system: Clostridium tyrobutyricum; assay: Balch tube batch growth of strict butyrogen Clostridium tyrobutyricum on fructose, optical density; assay type: cell-based; conditions: added 21 h after inoculation
# Experimental: Similar experiments were conducted to make a preliminary determination as to which of the crotonate and crotonate-like compounds would act as butyrogen retardants. For this purpose the selected compounds were tested again in a series of batch experiments to determine the growth response of butyrogens to the presence of the compound at varying concentrations. The batch experiments were all conducted by anoxically filling a 20 ml Balch tube with 5 ml of a fermentation medium having the composition given in Tables 2 and 3. The media included 0.5 v/v final concentration of a fructose substrate. For each of the crotonate concentrations tested, duplicate test tubes were prepared.
# Each tube was inoculated with 0.5 ml seed culture inoculum of the strict butyrogen Clostridium tyrobutyricum. The tubes were maintained at a temperature of 37° C. Twenty one hours after the inoculation of the tube with the bacteria, the different compounds from Table 1 were added to different tubes in the amounts indicated in Table 6. This was at a time of early to mid-log phase growth for the bacteria. Each fermentation of the bacteria in the media at the different concentration of crotonate derivatives were allowed to progress and were monitored to determine the bacteria growth at selected intervals of time varying from approximately 20 hours to 54 hours. Growth at the intervals was measured by reading the optical density (OD) of the fermentation liquid. Optical density was measured as described in Example 1. The ability of a tube fermentation at a particular concentration of crotonate derivative to reach a predetermined optical density was recorded in Table 6. Table 6 indicates the presence of bacterial growth to an OD of approximately 1.8 or above with a “+”, and to an optical density in a range of 0.7 to 1.5 as a “+/−”, and indicates the failure of bacterial growth to reach an optical density of approximately 0.7 as a “−”.
# [4] = 0 Hours, added 24 h after inoculation
# [5] = 2.5 Hours, added 24 h after inoculation
# [6] = 6.5 Hours, added 24 h after inoculation
# [7] = 24.5 Hours, added 24 h after inoculation
molecule,measurement,setting,value
3 trifluoromethyl-4-methoxybenzoate [Compound C-18],O.D. Response of Various Inhibitors on C. autoethanogenum,C. autoethanogenum [1]; [4],0.49
same,O.D. Response of Various Inhibitors on C. autoethanogenum,C. autoethanogenum [1]; [5],0.44
same,O.D. Response of Various Inhibitors on C. autoethanogenum,C. autoethanogenum [1]; [6],0.44
same,O.D. Response of Various Inhibitors on C. autoethanogenum,C. autoethanogenum [1]; [7],1.16
same,O.D. Response of Various Inhibitors on C. autoethanogenum,C. autoethanogenum [1]; 30.5 Hours,1.30
same,O.D. Response of Various Inhibitors on C. autoethanogenum,C. autoethanogenum [1]; 47.5 Hours,1.74
same,O.D. Response of Various Inhibitors on C. autoethanogenum,C. autoethanogenum [1]; 56 Hours,1.88
same,O.D. Response to Various Inhibitors,C. autoethanogenum [1]; [4],0.49
same,O.D. Response to Various Inhibitors,C. autoethanogenum [1]; [5],0.47
same,O.D. Response to Various Inhibitors,"C. autoethanogenum [1]; 2.5 Hours, added 24 h after inoculation, listed as C-19",0.41
same,O.D. Response to Various Inhibitors,C. autoethanogenum [1]; [6],0.44
same,O.D. Response to Various Inhibitors,C. autoethanogenum [1]; [7],1.15
same,O.D. Response to Various Inhibitors,"C. autoethanogenum [1]; 24.5 Hours, added 24 h after inoculation, listed as C-19",1.18
same,O.D. Response to Various Inhibitors,"C. autoethanogenum [1]; 30.5 Hours, added 24 h after inoculation",1.32
same,O.D. Response to Various Inhibitors,"C. autoethanogenum [1]; 30.5 Hours, added 24 h after inoculation, listed as C-19",1.28
same,O.D. Response to Various Inhibitors,"C. autoethanogenum [1]; 47.5 Hours, added 24 h after inoculation",1.73
same,O.D. Response to Various Inhibitors,"C. autoethanogenum [1]; 47.5 Hours, added 24 h after inoculation, listed as C-19",1.75
"O=C(O)/C=C/C(F)(F)F [G, 4,4,4-trifluorocrotonic acid]",Optical density valuation of C. autoethanogenum,C. autoethanogenum [2]; 10 ppm(m),+ (bacterial growth to an OD of approximately 2 or above)
same,Optical density valuation of C. autoethanogenum,C. autoethanogenum [2]; 100 ppm(m),+ (bacterial growth to an OD of approximately 2 or above)
same,Optical density valuation of C. autoethanogenum,C. autoethanogenum [2]; 500 ppm(m),+ (bacterial growth to an OD of approximately 2 or above)
same,Optical density valuation of C. autoethanogenum,C. autoethanogenum [2]; 1000 ppm(m),+/− (to an optical density in a range of 0.5 to 1.5)
same,Optical density valuation of C. autoethanogenum,C. autoethanogenum [2]; 5000 ppm(m),− (failure of bacterial growth to reach an optical density of approximately 0.5)
same,Optical density valuation of C. autoethanogenum,C. autoethanogenum [2]; 10000 ppm(m),− (failure of bacterial growth to reach an optical density of approximately 0.5)
same,Optical density valuation of C. tyrobutyricum,[3]; 100 ppm(m),+ (bacterial growth to an OD of approximately 1.8 or above)
same,Optical density valuation of C. tyrobutyricum,[3]; 500 ppm(m),+ (bacterial growth to an OD of approximately 1.8 or above)
same,Optical density valuation of C. tyrobutyricum,[3]; 1000 ppm(m),+ (bacterial growth to an OD of approximately 1.8 or above)
"CCOC(=O)/C=C(/C)N [H, ethyl 3-aminocrotonate]",Optical density valuation of C. autoethanogenum,C. autoethanogenum [2]; 10 ppm(m),+ (bacterial growth to an OD of approximately 2 or above)
same,Optical density valuation of C. autoethanogenum,C. autoethanogenum [2]; 100 ppm(m),+ (bacterial growth to an OD of approximately 2 or above)
same,Optical density valuation of C. autoethanogenum,C. autoethanogenum [2]; 500 ppm(m),+ (bacterial growth to an OD of approximately 2 or above)
same,Optical density valuation of C. autoethanogenum,C. autoethanogenum [2]; 1000 ppm(m),+ (bacterial growth to an OD of approximately 2 or above)
same,Optical density valuation of C. autoethanogenum,C. autoethanogenum [2]; 5000 ppm(m),+ (bacterial growth to an OD of approximately 2 or above)
same,Optical density valuation of C. autoethanogenum,C. autoethanogenum [2]; 10000 ppm(m),+ (bacterial growth to an OD of approximately 2 or above)
